Results published in ChEMBL document CHEMBL1201862, “PubChem BioAssay data set” (2004).
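Protocol summary: plate cells (96-well), add compound at 5 concentrations, incubate 48 h, interpolate endpoints linearly. At the GI50, growth is halved.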 Active and inactive are the calls of the source. Cut-off read from the data, not from the text of the source: active = GI50 up to about 1.1 µM and inactive = higher.

Assays:
Assay in all cases: DTP human tumour cell line panel, 48 h
[1] = system: HCT-116
[2] = system: CAKI-1
[3] = system: SK-MEL-28
[4] = system: KM-20L2
[5] = system: M19-MEL
[6] = system: SR
[7] = system: SN12C
[8] = system: KM12
[9] = system: NCI-H460
[10] = system: HOP-62
[11] = system: SF-295
[12] = system: CCRF-CEM
[13] = system: DMS-114
[14] = system: RXF 631
[15] = system: UACC-257
[16] = system: RPMI-8226
[17] = system: HL-60
[18] = system: HOP-92
[19] = system: OVCAR-5
[20] = system: IGROV-1
[21] = system: UO-31
[22] = system: RXF 393
[23] = system: DMS-273
[24] = system: COLO 205
[25] = system: A549
[26] = system: NCI-H226
[27] = system: Malme-3M
[28] = system: SK-MEL-5
[29] = system: HCT-15
[30] = system: A498
[31] = system: SK-OV-3
[32] = system: U-251
[33] = system: 786-0
[34] = system: OVCAR-3
[35] = system: SF-539
[36] = system: OVCAR-4
[37] = system: NCI-H23
[38] = system: UACC-62
[39] = system: HT-29
[40] = system: MOLT-4
[41] = system: M14
[42] = system: ACHN
[43] = system: K562
[44] = system: SW-620
[45] = system: HCC 2998
[46] = system: TK-10
[47] = system: DLD-1
[48] = system: HOP-18
[49] = system: SF-268
[50] = system: LXFL 529
[51] = system: SNB-75
[52] = system: LOX IMVI
[53] = system: SNB-78
[54] = system: SK-MEL-2
[55] = system: EKVX
[56] = system: OVCAR-8
[57] = system: SNB-19
[58] = system: NCI-H522

O=C(/C=C/c1ccccc1)/C=C/c1ccccc1
GI50 [1]: 17.3 µM (inactive)
GI50 [2]: 92.9 µM (inactive)
GI50 [3]: 18.5 µM (inactive)
GI50 [4]: 22.1 µM (inactive)
GI50 [5]: 20.6 µM (inactive)
GI50 [6]: 26.2 µM (inactive)
GI50 [7]: 20.4 µM (inactive)
GI50 [8]: 18 µM (inactive)
GI50 [9]: 27.5 µM (inactive)
GI50 [10]: > 100 µM (inactive)
GI50 [11]: 53.5 µM (inactive)
GI50 [12]: 36.9 µM (inactive)
GI50 [13]: 21.6 µM (inactive)
GI50 [14]: 32.8 µM (inactive)
GI50 [15]: 24.4 µM (inactive)
GI50 [16]: 39.3 µM (inactive)
GI50 [17]: 23.2 µM (inactive)
GI50 [18]: 34.8 µM (inactive)
GI50 [19]: > 100 µM (inactive)
GI50 [20]: 28.1 µM (inactive)
GI50 [21]: 43.5 µM (inactive)
GI50 [22]: 34.4 µM (inactive)
GI50 [23]: 38.7 µM (inactive)
GI50 [24]: > 100 µM (inactive)
GI50 [25]: > 100 µM (inactive)
GI50 [26]: > 100 µM (inactive)
GI50 [27]: 21.8 µM (inactive)
GI50 [28]: 33.1 µM (inactive)
GI50 [29]: 23.6 µM
GI50 [30]: > 100 µM (inactive)
GI50 [31]: 43 µM (inactive)
GI50 [32]: 20.6 µM (inactive)
GI50 [33]: 30.3 µM (inactive)
GI50 [34]: 23 µM (inactive)
GI50 [35]: 19.5 µM (inactive)
GI50 [36]: 22.1 µM (inactive)
GI50 [37]: 29.7 µM (inactive)
GI50 [38]: 33 µM (inactive)
GI50 [39]: 17.8 µM (inactive)
GI50 [40]: 20.7 µM (inactive)
GI50 [41]: 19.8 µM (inactive)
GI50 [42]: 18.9 µM (inactive)
GI50 [43]: 28.8 µM (inactive)
GI50 [44]: 17.4 µM (inactive)
GI50 [45]: 37.8 µM (inactive)
GI50 [46]: 58.2 µM (inactive)
GI50 [47]: 15.1 µM (inactive)
GI50 [48]: 28.6 µM (inactive)
GI50 [49]: 28.4 µM (inactive)
GI50 [50]: 21.2 µM (inactive)
GI50 [51]: 47.6 µM (inactive)
GI50 [52]: 16.8 µM (inactive)
GI50 [53]: 92.9 µM (inactive)
GI50 [54]: > 100 µM (inactive)

COc1c(CC(C)=O)ccc2c1C(=O)c1ccc(C=O)c(OC(C)=O)c1C2=O
GI50 [1]: 11.9 µM (inactive)
GI50 [2]: 17.8 µM (inactive)
GI50 [3]: 11 µM (inactive)
GI50 [4]: 14.9 µM (inactive)
GI50 [55]: 23.3 µM (inactive)
GI50 [7]: 12.9 µM (inactive)
GI50 [8]: 14.6 µM (inactive)
GI50 [9]: 23.3 µM (inactive)
GI50 [11]: 21.2 µM (inactive)
GI50 [12]: 3.23 µM (inactive)
GI50 [13]: 12.8 µM (inactive)
GI50 [14]: 20.6 µM (inactive)
GI50 [15]: 14.3 µM (inactive)
GI50 [16]: 8.45 µM (inactive)
GI50 [17]: 5.06 µM (inactive)
GI50 [18]: 18.9 µM (inactive)
GI50 [19]: 15.3 µM (inactive)
GI50 [20]: 18.9 µM (inactive)
GI50 [21]: 20.4 µM (inactive)
GI50 [22]: 4.09 µM (inactive)
GI50 [23]: 10.2 µM (inactive)
GI50 [24]: 16.1 µM (inactive)
GI50 [25]: 31.8 µM (inactive)
GI50 [26]: 15.7 µM (inactive)
GI50 [27]: 12.7 µM (inactive)
GI50 [28]: 14.1 µM (inactive)
GI50 [29]: 5.57 µM
GI50 [30]: 27.3 µM (inactive)
GI50 [31]: 55.5 µM (inactive)
GI50 [32]: 13.9 µM (inactive)
GI50 [33]: 6.32 µM (inactive)
GI50 [34]: 13.1 µM (inactive)
GI50 [35]: 7.89 µM (inactive)
GI50 [36]: 14.6 µM (inactive)
GI50 [37]: > 10 µM (inactive)
GI50 [38]: 4.55 µM (inactive)
GI50 [56]: 9.51 µM (inactive)
GI50 [39]: 13.9 µM (inactive)
GI50 [40]: 11.4 µM (inactive)
GI50 [41]: 12 µM (inactive)
GI50 [42]: 15.1 µM (inactive)
GI50 [43]: 11.6 µM (inactive)
GI50 [44]: 12.6 µM (inactive)
GI50 [57]: 19.9 µM (inactive)
GI50 [45]: 11.5 µM (inactive)
GI50 [46]: 27.5 µM (inactive)
GI50 [47]: 3.62 µM (inactive)
GI50 [58]: 2.15 µM (inactive)
GI50 [48]: 22.1 µM (inactive)
GI50 [49]: 4.38 µM (inactive)
GI50 [50]: 5.53 µM (inactive)
GI50 [51]: 20.5 µM (inactive)
GI50 [52]: 14.3 µM (inactive)
GI50 [53]: 18.2 µM (inactive)
GI50 [54]: 15.2 µM (inactive)
